According to patent US11622964B2, “Method for destroying cellular mechanical homeostasis and promoting regeneration and repair of tissues and organs, and use thereof” (INSTITUTE OF ZOOLOGY, CHINESE ACADEMY OF SCIENCES, priority 2018, dated 2023):

Assays:
[1] = test system: human hepatic stellate cells (hLX-2); assay: TGF-β1-induced transformation of human hepatic stellate cells into myofibroblasts; format: cell-based; conditions: 20 μM, 3 ng/ml TGF-β1, 7 days
Description: (§1) In this example, cell models for in vitro fibrosis are respectively built to activate mouse hepatic stellate Cells (mHSCs, FIG. 13(B)), mouse embryonic fibroblasts (MEFs FIG. 13(C)), mouse adult liver, lung, and heart-derived primary mesenchymal cells (priMCs, FIG. 13(D)), and human hepatic stellate cells (hLX-2, FIG. 13(E)) into myofibroblasts through the induction of TGF-β1. The specific experimental procedure is as shown in FIG. 9A: a medium containing 10% serum is used for the initial cell culture; after 24 hours the medium is replaced with low serum medium (or pre-starvation treatment for 16 hours) while adding 3 ng/ml TGF-β1 with DMSO or Bleb (20 μM); after 7 days the expression of myofibroblast activation marker protein (Acta2), collagen (Col1a1, Col1a2, Col3a1, and Col1a2), and matrix metalloproteinases and inhibitors (collagenases: MmP8, and MmP13; gelatinases: MmP2, and MmP9; a metalloproteinase inhibitor: Timp1/2/3) are identified.

[2] = test system: human embryonic hepatocytes; assay: In vitro amplification of human embryonic hepatocytes; format: cell-based; conditions: for cell amplification multiple: 12 days of passage culture (3 generations)
Description: Resuscitation of Human Embryonic Hepatocytes: human embryonic hepatocytes are removed from a liquid nitrogen tank (aborted fetus, frozen storage date is Jan. 15, 2014, frozen stock solution is cell banker 2, frozen cell number is 2×10^7/tube), quickly placing in a 37° C. water bath; and after melting the cells are immediately inhaled into a 15 ml centrifuge tube containing 5 ml of hepatocyte medium (control group), centrifuging at 50 g, 4° C. for 5 min; the supernatant is discarded, and the cells are resuspended in 500 ul hepatocyte medium and calculated as 1.16×10^6 with a cell recovery rate of 5.8%.
Inoculation of Human Embryonic Hepatocytes: inoculation density is 1×10^5/24 well plate, adding 500 μl hepatocyte medium (control group), hepatocyte medium containing 10 μM small molecules, and hepatocyte medium containing 20 μM small molecules respectively; 24 hours after inoculating, 3 wells of cells in each group are digested respectively to count the number of the cells, then calculating the cell adherent rate. 72 hours after inoculating, 3 wells of cells in each group are digested respectively to count the number of the cells. Multiple of the change of cell number may be obtained through dividing the number of cells at 72 hours after inoculation by the number of cells at 24 hours after inoculation. A portion of the cells per well (⅖ of the cell count) are taken for RNA extraction so as to detect human hepatocyte-related gene expression.
The First Passage of Human Embryonic Hepatocytes: cells are respectively inoculated into a 24-well plate coated with rat tail collagen (as described above), and the inoculum density is ⅗ of the number of cells after 72 hours of primary culture; 3 duplicate wells per group. After 72 hours of cell culture, the cells are digested to count the number. Multiple of the first passage amplification may be obtained through dividing the counted number of cells by the number of cells at the time of inoculation. A portion of the cells per well (⅖ of the cell count) are taken for RNA extraction so as to detect human hepatocyte-related gene expression.
The Second Passage of Human Embryonic Hepatocytes: cells are respectively inoculated into a 24-well plate coated with rat tail collagen (as described above), and the inoculum density is ⅗ of the number of cells after 72 hours of the first passage culture. […] After changing the medium every 2 days and continuing to culture for 144 hours (6 days), the cells are digested and counted. Multiple of the second passage amplification may be obtained through dividing the counted number of cells by the number of cells at the time of inoculation. […]

[3] = test system: bile duct ligation-induced fibrosis; assay: Bile duct ligation-induced hepatic fibrosis model; format: in vivo, mice
Description: The ICR, C57Bl/6 mice used in the experiment are purchased from SPF (Beijing) Biotechnology Co., Ltd.; elbow tweezers, finger tweezers, scissors, needle holders, suture needles, suture threads are purchased from Asone Trading Co., Ltd.; antibiotics are purchased from Gibco (15240-062). 8 week-old female mice are used, and they are fasted for 24 hours before the experiment. The mice are anesthetized with 5% chloral hydrate, and intraperitoneally injected with 8 ml/kg. The mice are fixed after anesthesia, and an incision is made in the abdomen to expose the organs. The duodenum of the stomach end is found and gently pulled to find the bile duct, carefully peeling off the bile duct with tweezers, ligating the bile duct with suture thread, then adding antibiotics, and suturing to close the abdominal cavity. The mice are fasted for 12 hours after surgery. 14-20 days after surgery, the skin of the mice is observed to be yellow-green, and drug is administered to mice for treatment. The mice in the modeling group are evenly divided into two groups, and the mice of experimental group are intraperitoneally injected with (−)-blebbistatin. As for the administration method, (−)-blebbistatin is dissolved in DMSO; sequentially adding 2-5% DMSO (final concentration, volume ratio)+30% PEG400 (final concentration, volume ratio)+2% Tween 80 (final concentration, volume ratio), the mice of the control group are injected with a solvent without the small molecule but containing an equal amount of DMSO (denoted as “Con”).

[4] = test system: mouse adult liver, lung, and heart-derived primary mesenchymal cells (priMCs); assay: TGF-β1-induced transformation of mouse primary mesenchymal cells into myofibroblasts; format: cell-based; conditions: 20 μM, 3 ng/ml TGF-β1, 7 days
Description: as §1

[5] = test system: mouse hepatic stellate cells (mHSCs); assay: TGF-β1-induced transformation of mouse hepatic stellate cells into myofibroblasts; format: cell-based; conditions: 20 μM, 3 ng/ml TGF-β1, 7 days
Description: as §1

[6] = test system: mouse embryonic fibroblasts (MEFs); assay: TGF-β1-induced transformation of mouse embryonic fibroblasts into myofibroblasts; format: cell-based
Description: as §1

Which results are given for `Cc1ccc2c(c1)C(=O)[C@]1(O)CCN(c3ccccc3)C1=N2` [(−)-blebbistatin]?
TGF-β1 induced transformation into myofibroblasts and extracellular matrix synthesis [1]: significantly inhibits; inhibitors of metalloproteinases [1]: down-regulation; metalloproteinases for degrading extracellular matrix [1]: promoting the up-regulation; cell amplification multiple ([2]; 20 μM Bleb medium): about 13 times; cell amplification multiple ([2]; 10 μm small-molecule medium): about 22.1 times; expression of human hepatocyte-specific genes ALB and AFP (real-time quantitative PCR) ([2]; 12 days of passage culture in 10 μM and 20 μM small molecule media): still express human hepatocyte-specific genes; cell morphology ([2]; after 12 days of passage culture in small molecule medium): typical hepatocyte morphology; accumulation of collagenous fibers (Sirius Red) ([3]; after 15 days of treatment): significantly inhibited; proliferation of myofibroblasts (α-SMA staining) ([3]; after 15 days of treatment): significantly inhibited; accumulation of collagenous fibers (Sirius Red) ([3]; after 30 days of treatment): significantly inhibits; hepatocyte proliferation (Ki-67 staining) ([3]; during the bile duct ligation process): promotes; state of the mice ([3]; intraperitoneal injection): more active and energetic; TGF-β1 induced transformation into myofibroblasts and extracellular matrix synthesis [4]: significantly inhibits; TGF-β1 induced transformation into myofibroblasts and extracellular matrix synthesis [5]: significantly inhibits; TGF-β1 induced transformation into myofibroblasts and extracellular matrix synthesis ([6]; 20 μM, 3 ng/ml TGF-β1, 7 days): significantly inhibits; stretched state / fibrous morphology of MEFs ([6]; compared with DMSO, S-Bleb-OB 20 μM): may destroy the stretched state; TGF-β1-induced myofibroblast activation ([6]; scheme as Example 9-1, S-Bleb-OB 20 μM): have an inhibitory effect
